Measured values: US7138361B2, “Herbicidal heterocycles” (E. I. du Pont de Nemours and Company, priority 2000, dated 2006)

Tests used:
Assay type in all cases: in vivo
[1] = test system: duck salad (Heteranthera limosa); experiment: Test B flooded paddy test; conditions: Rate 1000 g/ha, scale of 0 to 100 where 0 is no effect and 100 is complete control, visually evaluated after 13 to 15 days
Method in brief: (§1)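 Visual rating on a 0–100 scale, where 100 is complete control, made after 13 to 15 days in a greenhouse by comparison with untreated controls. Species treated in the flooded paddy were at the 2-leaf stage: barnyardgrass, duck salad, smallflower flatsedge and rice.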

[2] = test system: smallflower flatsedge (Cyperus difformis); experiment: Test B flooded paddy test; conditions: Rate 1000 g/ha, scale of 0 to 100 where 0 is no effect and 100 is complete control, visually evaluated after 13 to 15 days
Method in brief: as §1

[3] = test system: barnyardgrass (Echinochloa crus-galli); experiment: Test B flooded paddy test; conditions: Rate 1000 g/ha, scale of 0 to 100 where 0 is no effect and 100 is complete control, visually evaluated after 13 to 15 days
Method in brief: as §1

rice (Oryza saliva) [4] = experiment: Test B flooded paddy test; conditions: Rate 1000 g/ha, scale of 0 to 100 where 0 is no effect and 100 is complete control, visually evaluated after 13 to 15 days
Method in brief: as §1

wild oat (Avena fatua) = experiment: Test B postemergence; conditions: 13 to 15 days
Method in brief: (§2)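 Seeds were planted and sprayed preemergence with test chemical in a non-phytotoxic solvent mixture containing surfactant; postemergence plants (2 to 18 cm, 1- to 4-leaf stage) received the same formulation. Greenhouse hold 13 to 15 days, then visual rating versus untreated controls on a 0–100 scale (0 no effect, 100 complete control).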

corn (Zea mays) [5] = experiment: Test B postemergence; conditions: 13 to 15 days
Method in brief: as §2

[6] = test system: blackgrass (Alopecurus myosuroides); experiment: Test B postemergence; conditions: 13 to 15 days
Method in brief: as §2

[7] = test system: Surinam grass (Brachiaria decumbens); experiment: Test B postemergence; conditions: 13 to 15 days
Method in brief: as §2

[8] = test system: pigweed (Amaranthus retroflexus); experiment: Test B postemergence; conditions: 13 to 15 days
Method in brief: as §2

[9] = test system: morning glory (Ipomoea hederacea); experiment: Test B postemergence; conditions: 13 to 15 days
Method in brief: as §2

[10] = test system: giant foxtail (Setaria faberii); experiment: Test B postemergence; conditions: 13 to 15 days
Method in brief: as §2

[11] = test system: velvetleaf (Abutilon theophrasti); experiment: Test B postemergence; conditions: 13 to 15 days
Method in brief: as §2

[12] = test system: lambsquarters (Chenopodium album); experiment: Test B postemergence; conditions: 13 to 15 days
Method in brief: as §2

[13] = test system: barnyardgrass (Echinochloa crus-galli); experiment: Test B postemergence; conditions: 13 to 15 days
Method in brief: as §2

[14] = test system: cocklebur (Xanthium strumarium); experiment: Test B postemergence; conditions: 13 to 15 days
Method in brief: as §2

[15] = test system: wheat (Triticum aestivum); experiment: Test B postemergence; conditions: 13 to 15 days
Method in brief: as §2

[16] = test system: crabgrass (Digitaria sanguinalis); experiment: Test B postemergence; conditions: 13 to 15 days
Method in brief: as §2

corn (Zea mays) [17] = experiment: Test B preemergence
Method in brief: as §2

[18] = test system: Surinam grass (Brachiaria decumbens); experiment: Test B preemergence
Method in brief: as §2

[19] = test system: pigweed (Amaranthus retroflexus); experiment: Test B preemergence
Method in brief: as §2

[20] = test system: morning glory (Ipomoea hederacea); experiment: Test B preemergence
Method in brief: as §2

[21] = test system: giant foxtail (Setaria faberii); experiment: Test B preemergence
Method in brief: as §2

[22] = test system: velvetleaf (Abutilon theophrasti); experiment: Test B preemergence
Method in brief: as §2

[23] = test system: lambsquarters (Chenopodium album); experiment: Test B preemergence
Method in brief: as §2

[24] = test system: barnyardgrass (Echinochloa crus-galli); experiment: Test B preemergence
Method in brief: as §2

[25] = test system: cocklebur (Xanthium strumarium); experiment: Test B preemergence
Method in brief: as §2

rice (Oryza saliva) [26] = experiment: Test B preemergence
Method in brief: as §2

[27] = test system: crabgrass (Digitaria sanguinalis); experiment: Test B preemergence; conditions: scale 0 to 100, 0 no effect, 100 complete control
Method in brief: as §2

[28] = Rate 125 g/ha, scale 0 (no effect) to 100 (complete control)
[29] = Rate 500 g/ha, scale 0 to 100, 0 is no effect, 100 is complete control
[30] = Preemergence, Rate 500 g/ha, scale 0 to 100, 0 no effect, 100 complete control
[31] = preemergence, Rate 125 g/ha, scale of 0 to 100 where 0 is no effect and 100 is complete control, 13 to 15 days
[32] = preemergence, Rate 125 g/ha, scale 0 to 100, 0 no effect, 100 complete control

## COc1ccn(C2CCN(c3cccc(C(F)(F)F)c3)C2=O)n1 (centres unmarked) [Compound 60]
[1]
  Plant response rating, Ducksalad: 50
[2]
  Plant response rating, Flatsedge: 0
[3]
  Plant response rating, Barnyardgrass: 0
Rice (Oryza saliva) [4]
  Plant response rating, Rice: 0
Wild oat (Avena fatua); [28]
  Plant response rating, Wild Oat: 0
Wild oat (Avena fatua); [29]
  Plant response rating, Wild Oat: 0
Corn (Zea mays) [5]; [28]
  Plant response rating, Corn: 0
Corn (Zea mays) [5]; [29]
  Plant response rating, Corn: 0
[6]; [28]
  Plant response rating, Blackgrass: 0
[6]; [29]
  Plant response rating, Blackgrass: 0
[7]; [28]
  Plant response rating, Surinam grass: 0
[7]; [29]
  Plant response rating, Surinam grass: 0
[8]; [28]
  Plant response rating, Pigweed: 0
[8]; [29]
  Plant response rating, Pigweed: 0
[9]; [28]
  Plant response rating, Morningglory: 0
[9]; [29]
  Plant response rating, Morningglory: 0
[10]; [28]
  Plant response rating, Foxtail, Giant: 0
[10]; [29]
  Plant response rating, Foxtail, Giant: 0
[11]; [28]
  Plant response rating, Velvetleaf: 0
[11]; [29]
  Plant response rating, Velvetleaf: 0
[12]; [28]
  Plant response rating, Lambsquarters: 0
[12]; [29]
  Plant response rating, Lambsquarters: 0
[13]; [28]
  Plant response rating, Barnyardgrass: 0
[13]; [29]
  Plant response rating, Barnyardgrass: 0
[14]; [28]
  Plant response rating, Cocklebur: 0
[14]; [29]
  Plant response rating, Cocklebur: 0
[15]; [28]
  Plant response rating, Wheat: 0
[15]; [29]
  Plant response rating, Wheat: 0
[16]; [28]
  Plant response rating, Crabgrass: 0
[16]; [29]
  Plant response rating, Crabgrass: 0
Corn (Zea mays) [17]; [30]
  Plant response rating, Corn: 0
Corn (Zea mays) [17]; [31]
  Plant response rating, Corn: 0
[18]; [30]
  Plant response rating, Surinam grass: 0
[18]; [31]
  Plant response rating, Surinam grass: 0
[19]; [30]
  Plant response rating, Pigweed: 100
[19]; [31]
  Plant response rating, Pigweed: 0
[20]; [30]
  Plant response rating, Morningglory: 0
[20]; [31]
  Plant response rating, Morningglory: 0
[21]; [30]
  Plant response rating, Foxtail, Giant: 0
[21]; [31]
  Plant response rating, Foxtail, Giant: 0
[22]; [30]
  Plant response rating, Velvetleaf: 0
[22]; [31]
  Plant response rating, Velvetleaf: 0
[23]; [30]
  Plant response rating, Lambsquarters: 0
[23]; [31]
  Plant response rating, Lambsquarters: 0
[24]; [30]
  Plant response rating, Barnyardgrass: 0
[24]; [31]
  Plant response rating, Barnyardgrass: 0
[25]; [30]
  Plant response rating, Cocklebur: 0
[25]; [31]
  Plant response rating, Cocklebur: 0
Rice (Oryza saliva) [26]; [30]
  Plant response rating, Rice: 0
Rice (Oryza saliva) [26]; [31]
  Plant response rating, Rice: 0
[27]; Preemergence, Rate 500 g/ha
  Plant response rating, Crabgrass: 0

## CC(C)(C)c1ccn(C2C(=O)N(c3cccc(C(F)(F)F)c3)C[S+]2[O-])n1 (centres unmarked) [Compound 29]
[1]
  Plant response rating, Ducksalad: 0
[2]
  Plant response rating, Flatsedge: 30
[3]
  Plant response rating, Barnyardgrass: 0
Rice (Oryza saliva) [4]
  Plant response rating, Rice: 0
Wild oat (Avena fatua); [28]
  Plant response rating, Wild Oat: 0
Wild oat (Avena fatua); [29]
  Plant response rating, Wild Oat: 0
Corn (Zea mays) [5]; [28]
  Plant response rating, Corn: 0
Corn (Zea mays) [5]; [29]
  Plant response rating, Corn: 0
[6]; [28]
  Plant response rating, Blackgrass: 0
[6]; [29]
  Plant response rating, Blackgrass: 0
[7]; [28]
  Plant response rating, Surinam grass: 0
[7]; [29]
  Plant response rating, Surinam grass: 0
[8]; [28]
  Plant response rating, Pigweed: 30
[8]; [29]
  Plant response rating, Pigweed: 30
[9]; [28]
  Plant response rating, Morningglory: 0
[9]; [29]
  Plant response rating, Morningglory: 0
[10]; [28]
  Plant response rating, Foxtail, Giant: 0
[10]; [29]
  Plant response rating, Foxtail, Giant: 0
[11]; [28]
  Plant response rating, Velvetleaf: 0
[11]; [29]
  Plant response rating, Velvetleaf: 20
[12]; [28]
  Plant response rating, Lambsquarters: 0
[12]; [29]
  Plant response rating, Lambsquarters: 20
[13]; [28]
  Plant response rating, Barnyardgrass: 0
[13]; [29]
  Plant response rating, Barnyardgrass: 0
[14]; [28]
  Plant response rating, Cocklebur: 0
[14]; [29]
  Plant response rating, Cocklebur: 0
[15]; [28]
  Plant response rating, Wheat: 0
[15]; [29]
  Plant response rating, Wheat: 0
[16]; [28]
  Plant response rating, Crabgrass: 0
[16]; [29]
  Plant response rating, Crabgrass: 50
Corn (Zea mays) [17]; [30]
  Plant response rating, Corn: 0
Corn (Zea mays) [17]; [32]
  Plant response rating, Corn: 0
[18]; [30]
  Plant response rating, Surinam grass: 0
[18]; [32]
  Plant response rating, Surinam grass: 0
[19]; [30]
  Plant response rating, Pigweed: 70
[20]; [30]
  Plant response rating, Morningglory: 30
[21]; [30]
  Plant response rating, Foxtail, Giant: 0
[21]; [32]
  Plant response rating, Foxtail, Giant: 0
[22]; [30]
  Plant response rating, Velvetleaf: 20
[23]; [30]
  Plant response rating, Lambsquarters: 100
[23]; [32]
  Plant response rating, Lambsquarters: 0
[24]; [30]
  Plant response rating, Barnyardgrass: 20
[24]; [32]
  Plant response rating, Barnyardgrass: 0
[25]; [30]
  Plant response rating, Cocklebur: 0
[25]; [32]
  Plant response rating, Cocklebur: 0
Rice (Oryza saliva) [26]; [30]
  Plant response rating, Rice: 0
[27]; Preemergence, Rate 500 g/ha
  Plant response rating, Crabgrass: 0
[27]; preemergence, Rate 125 g/ha
  Plant response rating, Crabgrass: 0

## Cc1ccc(N2CCC(n3ccc(C(C)(C)C)n3)C2=O)cc1Cl (centres unmarked) [Compound 41]
[1]
  Plant response rating, Ducksalad: 70
[2]
  Plant response rating, Flatsedge: 100
[3]
  Plant response rating, Barnyardgrass: 70
Rice (Oryza saliva) [4]
  Plant response rating, Rice: 40
Wild oat (Avena fatua); [28]
  Plant response rating, Wild Oat: 0
Wild oat (Avena fatua); [29]
  Plant response rating, Wild Oat: 0
Corn (Zea mays) [5]; [29]
  Plant response rating, Corn: 0
[6]; [28]
  Plant response rating, Blackgrass: 0
[6]; [29]
  Plant response rating, Blackgrass: 0
[7]; [28]
  Plant response rating, Surinam grass: 0
[7]; [29]
  Plant response rating, Surinam grass: 0
[8]; [28]
  Plant response rating, Pigweed: 0
[8]; [29]
  Plant response rating, Pigweed: 80
[9]; [28]
  Plant response rating, Morningglory: 0
[9]; [29]
  Plant response rating, Morningglory: 20
[10]; [28]
  Plant response rating, Foxtail, Giant: 0
[10]; [29]
  Plant response rating, Foxtail, Giant: 0
[11]; [28]
  Plant response rating, Velvetleaf: 0
[11]; [29]
  Plant response rating, Velvetleaf: 0
[12]; [28]
  Plant response rating, Lambsquarters: 0
[12]; [29]
  Plant response rating, Lambsquarters: 60
[13]; [28]
  Plant response rating, Barnyardgrass: 0
[13]; [29]
  Plant response rating, Barnyardgrass: 70
[14]; [28]
  Plant response rating, Cocklebur: 0
[14]; [29]
  Plant response rating, Cocklebur: 0
[15]; [28]
  Plant response rating, Wheat: 0
[15]; [29]
  Plant response rating, Wheat: 0
[16]; [28]
  Plant response rating, Crabgrass: 0
[16]; [29]
  Plant response rating, Crabgrass: 40
Corn (Zea mays) [17]; [30]
  Plant response rating, Corn: 0
Corn (Zea mays) [17]; [32]
  Plant response rating, Corn: 0
[18]; [30]
  Plant response rating, Surinam grass: 0
[18]; [32]
  Plant response rating, Surinam grass: 0
[19]; [30]
  Plant response rating, Pigweed: 100
[20]; [30]
  Plant response rating, Morningglory: 0
[21]; [30]
  Plant response rating, Foxtail, Giant: 60
[21]; [32]
  Plant response rating, Foxtail, Giant: 0
[22]; [30]
  Plant response rating, Velvetleaf: 0
[23]; [30]
  Plant response rating, Lambsquarters: 100
[23]; [32]
  Plant response rating, Lambsquarters: 100
[24]; [30]
  Plant response rating, Barnyardgrass: 100
[24]; [32]
  Plant response rating, Barnyardgrass: 40
[25]; [30]
  Plant response rating, Cocklebur: 0
[25]; [32]
  Plant response rating, Cocklebur: 0
Rice (Oryza saliva) [26]; [30]
  Plant response rating, Rice: 0
[27]; Preemergence, Rate 500 g/ha
  Plant response rating, Crabgrass: 0
[27]; preemergence, Rate 125 g/ha
  Plant response rating, Crabgrass: 0
